Where two headings read alike, the source gives them in different places. Marks after values point to notes of the source that are not given here.
Assays:
PBCV-1 ThyX [1] = target: T1, PBCV-1 ThyX (Paramecium bursaria Chlorella virus 1, UniProt O41156); assay: 'deprotonation' activity (tritium release assay from [5-3H]dUMP); assay type: biochemical, Paramecium bursaria chlorella virus (PBCV-1); details: compound 20 µM
T1 construct: made in house; host or cells: E. coli BL21

PBCV-1 ThyX [2] = target: T1, PBCV-1 ThyX; assay: NADPH oxidation assay of ThyX activity (decrease of A340); assay type: biochemical, Paramecium bursaria chlorella virus (PBCV-1)
PBCV-1 ThyX [3] = target: T1, PBCV-1 ThyX; assay: C8-C1 induced quenching of FAD fluorescence; assay type: binding; details: authors' unpublished data
Method: We stress that the total PBCV-1 ThyX concentration used in these assays was 10 μM.

[4] = system: E. coli FE010 carrying plasmid overexpressing PBCV-1 thyX; assay: Growth inhibition with IPTG-induced overexpression of PBCV-1 ThyX (selectivity factor, ratio of CFUs)
Method: Escherichia coli MG1655 (wild-type, thyA^+ tdk^+) and FE010 [ΔthyA::PBCV-1 thyX tdk^+] [26] were grown at 37°C either in thymidine-containing LB medium or thymidine-free M9 minimal medium supplemented with 0.1 mM CaCl2, 2 mM MgSO4 and 0.2 per cent casamino acids (Difco). IPTG-induced overexpression of target protein PBCV-1 ThyX was used to test titration of inhibitor in the bacterial cell. When necessary, thymidine (40 µg ml^−1) and kanamycin (40 µg ml^−1) were added to the growth medium. The cells were then harvested and washed two times with M9 medium to remove the remaining thymidine. The cells were diluted to an OD600 of approximately 0.1 using M9 medium and 1 ml of cell suspension was transferred to 24-well microplates (Nunc). Compounds were dissolved in DMSO and were added at indicated concentrations. No cells and DMSO-only controls were included for each medium composition. The plates were closed with plastic lids and incubated at 37°C with shaking at 160 r.p.m. […] Colony-forming units (CFU) per millilitre for each growth condition were determined from three independent experiments.
The values reported are means of three individual experiments. Hundred per cent refers to cell viability, measured as CFU, in the absence of inhibitor. […]

PBCV-1 ThyX [5] = target: T1, PBCV-1 ThyX; assay: ThyX assay under anaerobic conditions (NADPH oxidation at 340 nm, FAD reduction at 450 nm); assay type: biochemical, Paramecium bursaria chlorella virus (PBCV-1); details: 100 μM dUMP or inhibitor, 400 μM NADPH, 77 μM ThyX bound FAD
Method: ThyX assays (100 μl) under anaerobic conditions contained 77 μM of PBCV-1 ThyX bound FAD in 300 mM NaCl, 1 mM MgCl2, 10 per cent glycerol (m/v) and 50 mM HEPES, pH 8.0. Samples were made anaerobic by repeatedly degassing with argon. Traces of oxygen were removed using the glucose oxidase system (60 units of glucose oxidase and catalase in the presence of 10 mM glucose). Where indicated, 100 μM dUMP, 100 μM inhibitor C8-C1 and 400 μM NADPH were added using an air-tight syringe. NADPH oxidation and FAD reduction were followed spectroscopically (optical path length 1 mm) at 340 and 450 nm, respectively.

PBCV-1 ThyX [6] = target: T1, PBCV-1 ThyX; parameters: method as in PMID 15471872; details: cited from earlier work
Thermotoga maritima ThyX = details: T. maritima ThyX; no reference given; cited from earlier work
M. tuberculosis ThyX = target: T2, M. tuberculosis ThyX (Mycobacterium tuberculosis, UniProt P9WG57); assay type: biochemical
T2 construct: made in house; host or cells: E. coli BL21
T2 sequence (P9WG57 whole entry): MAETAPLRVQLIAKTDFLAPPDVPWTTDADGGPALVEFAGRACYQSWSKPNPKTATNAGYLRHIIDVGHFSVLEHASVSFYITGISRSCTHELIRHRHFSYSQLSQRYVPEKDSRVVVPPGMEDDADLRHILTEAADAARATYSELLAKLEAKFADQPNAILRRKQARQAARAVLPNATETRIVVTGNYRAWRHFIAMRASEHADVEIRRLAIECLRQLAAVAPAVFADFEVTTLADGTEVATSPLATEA

C. trachomatis ThyX = assay: ThyX activity with isolated C. trachomatis ThyX; assay type: biochemical, Chlamydia trachomatis
[7] = system: E. coli MG1655 (wild-type, thyA+ tdk+); assay: Growth inhibition (CFU) of isogenic wild-type E. coli; details: Escherichia coli, MG1655, 24 h, read-out: growth inhibition
Method: (§1) Escherichia coli MG1655 (wild-type, thyA^+ tdk^+) and FE010 [ΔthyA::PBCV-1 thyX tdk^+] [26] were grown at 37°C either in thymidine-containing LB medium or thymidine-free M9 minimal medium supplemented with 0.1 mM CaCl2, 2 mM MgSO4 and 0.2 per cent casamino acids (Difco). IPTG-induced overexpression of target protein PBCV-1 ThyX was used to test titration of inhibitor in the bacterial cell. When necessary, thymidine (40 µg ml^−1) and kanamycin (40 µg ml^−1) were added to the growth medium. The cells were then harvested and washed two times with M9 medium to remove the remaining thymidine. The cells were diluted to an OD600 of approximately 0.1 using M9 medium and 1 ml of cell suspension was transferred to 24-well microplates (Nunc). Compounds were dissolved in DMSO and were added at indicated concentrations. No cells and DMSO-only controls were included for each medium composition. The plates were closed with plastic lids and incubated at 37°C with shaking at 160 r.p.m. After 24 h of incubation, 100 µl of 10-fold serial dilutions were plated onto LB plates or LB plates supplemented with kanamycin (40 µg ml^−1) when appropriate. Colonies were enumerated after overnight incubation at 37°C. Colony-forming units (CFU) per millilitre for each growth condition were determined from three independent experiments.

[8] = target: T3, human thymidylate synthase (Homo sapiens, UniProt P04818); assay: Human thymidylate synthase activity; assay type: biochemical; details: data not shown
T3 construct: made in house; host or cells: E. coli BL21
T3 sequence (P04818 whole entry): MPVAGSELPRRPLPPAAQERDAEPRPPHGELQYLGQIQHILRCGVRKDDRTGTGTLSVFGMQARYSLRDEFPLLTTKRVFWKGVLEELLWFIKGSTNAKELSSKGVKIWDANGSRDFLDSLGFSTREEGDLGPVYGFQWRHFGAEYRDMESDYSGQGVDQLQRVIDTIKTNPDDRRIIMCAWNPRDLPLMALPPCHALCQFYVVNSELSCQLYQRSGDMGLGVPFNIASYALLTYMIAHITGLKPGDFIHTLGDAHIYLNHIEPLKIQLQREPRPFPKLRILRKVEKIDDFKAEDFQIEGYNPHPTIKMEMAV

[9] = system: E. coli FE010 (ΔthyA::PBCV-1 thyX tdk+); assay: Growth inhibition (CFU) of genetically modified E. coli dependent on thyX
Method: as §1

H. pylori ThyX = target: T4, H. pylori ThyX (Helicobacter pylori, UniProt O26061); assay type: biochemical
T4 construct: made in house; host or cells: E. coli BL21
T4 sequence (O26061 1-208): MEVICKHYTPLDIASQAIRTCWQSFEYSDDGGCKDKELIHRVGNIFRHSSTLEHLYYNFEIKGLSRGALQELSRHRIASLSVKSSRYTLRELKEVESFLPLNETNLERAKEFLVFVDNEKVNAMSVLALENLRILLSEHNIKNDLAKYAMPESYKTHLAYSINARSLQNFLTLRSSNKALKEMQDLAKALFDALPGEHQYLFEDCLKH

[10] = 10 µM total PBCV-1 ThyX, 5 µM dUMP, 200 µM NADPH, read-out: IC50 (µM) NADPH oxidation

T1 sequence (O41156 whole entry): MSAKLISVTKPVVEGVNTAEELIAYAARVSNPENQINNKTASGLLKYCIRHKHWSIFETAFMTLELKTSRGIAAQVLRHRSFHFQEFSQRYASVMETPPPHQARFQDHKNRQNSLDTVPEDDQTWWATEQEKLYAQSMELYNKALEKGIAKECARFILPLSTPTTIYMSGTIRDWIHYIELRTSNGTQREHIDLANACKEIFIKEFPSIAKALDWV

For `O=C(O)c1ccccc1NC1=CC(=O)c2c(O)cccc2C1=O` [B3-C1, 2-(5-hydroxy-1,4-dioxo-1,4-dihydronaphthalen-2-ylamino)benzoic acid], the inhibition at 20 µM (PBCV-1 ThyX [1]) was 12 ± 6% and the IC50 (PBCV-1 ThyX [2]; [10]) was over 10 µM.
For `COc1ccc(CC2=C(O)C(=O)c3ccccc3C2=O)cc1` [C8-C1, 2-hydroxy-3-(4-methoxybenzyl)-1,4-naphthoquinone], the Kd (PBCV-1 ThyX [3]) was about 0.4 µM, the inhibition at 20 µM (PBCV-1 ThyX [1]) was 78 ± 4% and the “effect of ThyX overexpression on growth inhibition (selectivity factor)” value ([4]; 50 μg ml−1, with vs without IPTG induction) was “less-potent growth inhibition”. For the same compound, the “FAD reduction (nmol)” value (PBCV-1 ThyX [5]) was 0^b nmol, the “NADPH oxidation” value (PBCV-1 ThyX [5]) was 0 nmol and the IC50 (PBCV-1 ThyX [2]) was 4.5 µM. The “inhibition modality with respect to NADPH” value (PBCV-1 ThyX [2]; IC50 plotted against NADPH concentration) was “tight-binding uncompetitive inhibition”, the “inhibition modality with respect to dUMP” value (PBCV-1 ThyX [2]; IC50 plotted against dUMP concentration) was “tight-binding competitive inhibitor” and the Ki (PBCV-1 ThyX [2]; Ki after correcting for total enzyme and dUMP concentration, competitive with respect to dUMP) was 0.46 µM. For the same compound, the Ki (PBCV-1 ThyX [2]; apparent Ki (Morrison equation), with respect to dUMP, uncorrected) was 1.5 µM and the “Ki (uncompetitive, NADPH)” value (PBCV-1 ThyX [2]; with respect to NADPH) was 4.45 µM.
In the case of `O=c1ccn([C@H]2C[C@H](O)[C@@H](COP(=O)(O)O)O2)c(=O)[nH]1` [dUMP, 2′-deoxyuridine-5′-monophosphate, reference compound], the “activating factor of NAD(P)H oxidase activity” value (PBCV-1 ThyX [6]) is listed as over 20, the “activating factor of NAD(P)H oxidase activity” value (Thermotoga maritima ThyX) is listed as 5–7 and the “FAD reduction (nmol)” value (PBCV-1 ThyX [5]) is listed as 8.9^a nmol. The “NADPH oxidation” value (PBCV-1 ThyX [5]) was 11.3 nmol.
`O=C(CC1=C(O)C(=O)c2ccccc2C1=O)c1ccccc1` [E11-C1, 2-hydroxy-3-(2-oxo-2-phenylethyl)-1,4-naphthoquinone] gave an inhibition at 20 µM (PBCV-1 ThyX [1]) of 36 ± 5% and an IC50 (PBCV-1 ThyX [2]; [10]) of 11 µM.
For `O=C1C=C(Br)C(=O)c2c(O)cccc21` [2E04, 2-bromo-8-hydroxy-1,4-naphthoquinone], the “effect on ThyX activity” value (M. tuberculosis ThyX) was “specifically decreased the activity”, the “effect on ThyX activity” value (C. trachomatis ThyX) was “specifically decreased the activity” and the inhibition at 1.5 µg/mL [7] was 10 to 15%. The “inhibitory effect on human thymidylate synthase” value [8] was “No inhibitory effect”, the “growth inhibition after addition of thymidine to the growth medium” value ([9]; 1.5 μg ml−1, thymidine added) was “reversed” and the inhibition at 1.5 µg/mL ([9]; Escherichia coli, 24 h, read-out: inhibition of bacterial growth) was about 80%. The “effect of ThyX overexpression on growth inhibition (selectivity factor)” value ([4]; 1.5 μg ml−1, with vs without IPTG induction) was “less-potent growth inhibition” and the “effect on ThyX activity” value (H. pylori ThyX) was “specifically decreased the activity”.
`Cc1ccc(C(=O)CC2=C(O)C(=O)c3ccccc3C2=O)cc1` [F3-C1, 2-hydroxy-3-(2-oxo-2-p-tolylethyl)-1,4-naphthoquinone] gave an inhibition at 20 µM (PBCV-1 ThyX [1]) of 38 ± 7% and an IC50 (PBCV-1 ThyX [2]; [10]) of 7 µM.
`COc1ccc(C(=O)CC2=C(O)C(=O)c3ccccc3C2=O)cc1` [G3-C1, 2-hydroxy-3-(2-(4-methoxyphenyl)-2-oxoethyl)-1,4-naphthoquinone] gave an inhibition at 20 µM (PBCV-1 ThyX [1]) of 22 ± 7% and an IC50 (PBCV-1 ThyX [2]; [10]) of 10 µM.
Work on `O=C(CC1=C(O)C(=O)c2ccccc2C1=O)c1cccs1` [H3-C1, 2-hydroxy-3-(2-oxo-2-(thiophen-2-yl)ethyl)-1,4-naphthoquinone] yielded an inhibition at 20 µM (PBCV-1 ThyX [1]) of 38 ± 3% and an IC50 (PBCV-1 ThyX [2]; [10]) of 7 µM.

— publication PMC3498832, “Mechanistic and structural basis for inhibition of thymidylate synthase ThyX” (Open Biology, 2012)
